According to patent publication US20070066572A1, “Neuroprotection by positively-charged nitroxides” (priority 2005, published 2007):

Assays:
[1] = system: hSOD1-G93A mice; test: In vivo attenuation of ALS symptoms in transgenic G93A-SOD1 mice; conditions: 40 mg/kg or about 1 mg/mouse/day in drinking water
Text: Animal model: A transgenic mouse line overexpressing mutant G93A-SOD1 gene (TgN(SOD1-G93A)1Gur, herein called hSOD1-G93A, a high expression mouse line) and the mating pairs were purchased from Jackson Laboratory (Bar Harbor, Me.). Mice were housed and bred as described previously (Liu R, et al., “Enhanced oxygen radical production in a transgenic mouse model of familial amyotrophic lateral sclerosis,” Ann. Neurol. 44:763-70 (1998)) and in accordance with the University of North Dakota Animal Care and Use Committee guidelines.
At age 40-50 days, transgenic littermates (wild-type normal mice and hSOD1-G93A mice) were divided into three groups (n=10) and administered with vehicle alone (regular drinking water), Mito-Tempol (40 mg/kg or about 1 mg/mouse/day) or Tempol (40 mg/kg or about 1 mg/mouse/day), respectively. The onset of disease was defined as the day when a sharp decrease in muscle strength was detected. The initial symptoms of hind leg paralysis was considered as the disease progression as well.

[2] = system: Bovine aortic endothelial cells (BAECs); test: Glu/GO-induced caspase-3 activity (apoptosis) in BAECs; type: cell-based
Procedure: Cell line: Bovine aortic endothelial cells (BAECs; American Type Culture Collection) were grown to confluence in DMEM (Calbiochem; San Diego, Calif.) containing 10% fetal bovine serum (FBS; Invitrogen; Carlsbad, Calif.) insulin (10 μg/ml; Invitrogen), transferrin (5 μg/ml; Invitrogen), glutamine (4 mM; Sigma-Aldrich), penicillin (100 units/ml; Sigma-Aldrich) and streptomycin (100 μg/ml; Sigma-Aldrich) and were incubated at 37° C. in a humidified atmosphere of 5% CO2 and 95% air. The BAECs were used between passages four and twelve, as described by Balla G, et al., “Ferritin: a cytoprotective antioxidant strategem of endothelium,” J. Biol. Chem. 267:18148-18153 (1992). On the day of treatment, the medium was replaced with DMEM containing 2% FBS.
Glucose/Glucose Oxidase (Glu/GO): GO was obtained from Sigma Aldrich (Milwaukee, Wis.); 13-hydroperoxyoctadecadienoic acid (13-HpODE, a lipoxygenase-catalyzed oxidative metabolite of linolieic acid) and β-hydroxyoctadecadienoic acid (13-HODE, […]) were obtained from Cayman Chemical Co. (Ann Arbor, Mich.); 2′,7′-dichlorodihydrofluorescein diacetate (DCFH-DA) was obtained from Molecular Probes (Eugene, Oreg.); N-carbobenzoxyl-L-leucinyl-L-norleucinal (MG-132) was obtained from Biomol (Plymouth Meeting, Pa.); and clastolactacystin-α-lactone (Lac) was obtained from Sigma Aldrich.
BAECs were incubated with Glu/GO (20 μM), 13-HpODE (25 μM) or 13-HODE (25 μM) for different time periods (0, 2, 4, 8 or 16 hours).
Caspase-3 Activity: After treatment with Glu-GO and antioxidants, cells were washed twice with Dulbecco's phosphate-buffered saline (DPBS) and lysed with cell lysis buffer. Caspase-3 activity was measured with acetyl Asp-Glu-Val-Asp 7-amido-4-methylcoumarin (Ac-DEVD-AFC), as described in a kit from Sigma Aldrich. Caspase-3 hydrolyzes Ac-DEVD-AFC to release a fluorescent moiety, 7-amino-4-methylcoumarin (AMC). Briefly, treated cells were suspended in 100 μl of lysis buffer and passed through a 24-guage needle 10 times to ensure complete lysis. The resulting lysate was centrifuged at 4° C. at 10,000 rmp. […]

**Q.** Which results are given for CC1(C)CC(OCCCCC[P+](c2ccccc2)(c2ccccc2)c2ccccc2)CC(C)(C)N1[O].[Br-] [Mito-Tempol]?
**A.** disease progression ([1]; FIG. 2): delayed disease progression; lifespan ([1]; FIG. 3): increased the lifespan; running activity as measured by Rotarod (motor function) ([1]; FIG. 4): promoted the running activity; Glu/GO-mediated caspase-3 activation ([2]; BAECs pretreated at 0.5 and 1 μM, Glu/GO eight hours, FIG. 5): greatly inhibited; potency in inhibiting peroxide-induced apoptosis relative to Tempol ([2]; BAECs, Glu/GO, FIG. 5): more potent than Tempol; endothelial oxidative damage and apoptosis ([2]; Mito-Tempol prepared by the modified method): inhibited endothelial oxidative damage and apoptosis
